System: normal human melanocytes
Assay: Melanin content of normal human melanocytes, normalized to proliferation (MTS)
Format: cell-based
Details: 5 day treatment, normal human melanocytes from neonatal skin
Experimental: Normal human melanocytes from neonatal skin were used for the assay. For the primary screening, the cells were seeded simultaneously into 96-well plates and 24-well plates appropriately according to the surface area of the wells, and treated with the test compound for 5 days. The addition of the compound to the plates was done using a Robot to ensure accuracy (same amount in each well). At the end of 5 day treatment, the cells in the 96-well plate were treated with MTS solution and the plate was read at 490 nm to determine the effect of the compounds on the growth of the cells. The cells in the 24-well plates were rinsed with PBS, and then lysed with 1N NaOH, and the absorbence of alkali soluble melanin was measured at 405 nm.
The data from the 96-well plate was analyzed to determine the effect of each compound on the proliferation of the cells, and the data from the 24-well plate was used to determine the effect of the compound on the melanin content of the cells. The melanin content was then normalized to the proliferation of the cells.

With `C=C(c1ccc(C(=O)O)cc1)c1ccc2c(c1)C(C)(C)CCC2(C)C` [CD No. 2771, 4-[1-(5,6.7,8-tetrahydro-5,5,8,8-tetramethyl-2-naphthyl)ethenyl]benzoic acid] the “Maximum Increase in Melanin Content (Normalized)” value (from here on “Maximum Increase … (Normalized)”) (at 2 μM) was 250% at 2 μM.
In the case of `Cc1cc2c(cc1-c1cccc(C=CC(=O)O)c1)C(C)(C)CCC2(C)C` [CD No. 2915, 3-[3-(3,5,5,8,8-pentamethyl-5.6,7.8-tetrahydro-naphthalen-2-yl)-phenyl]-acrylic acid], the “Maximum Increase … (Normalized)” value (at 0.1 μM) is reported as 165% at 0.1 μM.
With `CC(=CC(=O)O)c1cccc(-c2cc3c(cc2C)C(C)(C)CCC3(C)C)c1` [CD No. 3206, 3-[3-(3,5.5,8,8-pentamethyl-5,6,7,8-tetrahydro-naphthalen-2-yl)-phenyl]-but-2-enoic acid] the “Maximum Increase … (Normalized)” value (at 0.5 μM) was 198% at 0.5 μM.
